Where two headings read alike, the source gives them in different places.
Key:
[1] = tested on: HCV replicon in Huh7 cells; experiment: HCV replicon cell-based assay; design: species or system HCV strain 1B; conditions: Hepatitis C virus, HCV replicon, Huh7 cells
Outline: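 Genotype 1b subgenomic replicon Huh7 cells exposed to compound 4 days at 37° C in 4% FCS, 0.5% DMSO medium. EC50 from TaqMan RT-PCR of HCV RNA, normalized to total RNA by RiboGreen; CC50 from alamar Blue fluorescence after 4 h.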

human liver cathepsin B = target: T1, human liver cathepsin B (Homo sapiens, UniProt P07858); experiment: Specificity assay, human liver cathepsin B; assay type: biochemical
T1 construct: from tissue; host or cells: liver
Protocol: (§1) The specificities of compounds of the present invention were determined against a variety of serine proteases: human leukocyte elastase, porcine pancreatic elastase and bovine pancreatic α-chymotrypsin and one cysteine protease: human liver cathepsin B. In all cases a 96-well plate format protocol using calorimetric […] (pNA) substrate specific for each enzyme was used as described previously (Patent WO 00/09543) with some modifications.
(§2) Each assay included a 1 h enzyme-inhibitor pre-incubation at RT followed by addition of substrate and hydrolysis to ˜30% conversion as measured on a Spectramax Pro microplate reader. Compound concentrations varied from 100 to 0.4 μM depending on their potency.
(§3) The final conditions and protocol for each assay was as reported previously (Patent WO 00/09543) with the inclusion of an additional assay: • 50 mM Tris-HCl pH 8, 0.5M Na2SO4, 50 mM NaCl, 0.1 mM EDTA, 3% DMSO, 0.01% Tween-20 with 133 μM succ-AAA-PNA and 20 nM Elastase
(§4) The percentage of inhibition was calculated using the formula: [1−((UVinh−UVblank)/(UVctl−UVblank))]×100

human leukocyte elastase = target: T2, human leukocyte elastase (Homo sapiens, UniProt P08246); experiment: Specificity assay, human leukocyte elastase; assay type: biochemical; conditions: read-out: HLE
T2 sequence (P08246 30-267): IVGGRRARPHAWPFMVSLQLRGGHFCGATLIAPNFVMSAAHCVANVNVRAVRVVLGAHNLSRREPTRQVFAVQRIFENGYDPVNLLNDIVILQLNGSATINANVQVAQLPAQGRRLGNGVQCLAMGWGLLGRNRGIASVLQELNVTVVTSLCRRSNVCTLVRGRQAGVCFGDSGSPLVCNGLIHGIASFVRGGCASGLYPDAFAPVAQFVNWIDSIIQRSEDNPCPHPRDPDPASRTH
Protocol: as §1, §2, §3, §4

C=CC1C[C@]1(NC(=O)[C@@H]1C[C@@H](Oc2cc(-c3ccccc3)nc3cc(OC)ccc23)CN1C(=O)C(NC(=O)OC(C)(C)C)C(C)(C)C)C(=O)NS(=O)(=O)c1ccc(NC(C)=O)cc1 (stereo partly shown) [Compound 58]
EC50 ([1]; Huh-7, 96 h, 4 days, activity ranges, read-out: EC50): < 0.5 µM
EC50 ([1]; Huh-7, read-out: EC50 value in the replicon assay): 0.25 µM
IC50 (human liver cathepsin B): > 100 µM
IC50 (human leukocyte elastase): 35 µM

— US6872805B2 (Bristol-Myers Squibb Company, priority 2000, dated 2005)
